Legend:
[1] = test system: panel of human tumor cell lines as well as normal endothelial cells; assay: Growth inhibition (IC50) of human tumor cell lines and normal endothelial cells; type: cell-based; conditions: newly synthesized compounds compared with compounds synthesized by the original method
Excerpt: Before conducting experiments with newly synthesized 3- and 4-F-GlcNAc the effects of 3- and 4-F-GlcNAc on the growth of a panel of human tumor cell lines as well as normal endothelial cells (i.e. IC50 values) were first determined and compared with the original growth inhibitory action (9 Bernacki, R. J. et al. (1977) J. Supra. Stru., 7:235–250; 10 Sharma, M. and W. Korytnyk (1980) Carbohyd. Res., 79:39–51;11 Sharma, M. et al. (1990). Carbohyd. Res., 198:205–22).

[2] = previous studies; cited from earlier work
[3] = test system: human ovarian, A121, tumor cells; conditions: cited from earlier work
[4] = test system: P-selectin ligand activity of CLA+ T-lymphocytes; assay: Parallel-plate flow chamber, CLA+ T-cell tethering and rolling on P-selectin chimera; type: cell-based, human
Procedure: (§1) To analyze the affects of 4-F-GlcNAc on the function of CLA on human T-cells, we examined the ability of 4-F-GlcNAc-treated (0.05, 0.1, 0.5 mM for 30 hrs) CLA-+ T-cells cultures to engage with immobilized E- and P-selectin chimera in the parallel-plate flow chamber. As described for flow cytometric analyses (Example 13), cells were first pretreated with neuraminidase to remove terminal sialic acid residues required for HECA-452 reactivity and for E- and P-selectin ligand activity of CLA. This approach allowed for the assessment on de novo synthesized CLA molecules.
(§2) Tethering and rolling of human T-cells on recombinant human E- and P-selectin-Ig chimera (provided by Dr. Robert Fuhlbrigge, Harvard Medical School) and human L-selectin-Ig (gift from Dr. Ray Camphausen, Wyeth/Genetics Institute, Inc., Cambridge, Mass.) were analyzed in the parallel-plate flow chamber under physiologic shear stress conditions (3). To prepare E- and P-selectin-Ig chimera spots, protein A (300 μg/15 μl 0.1M NaHCO3) was adsorbed to Ten-twenty-nine™ Petri dishes for 2 h at 37° C. Human serum albumin ([…] PBS) then added and incubated for 2 h at 37° C. to block non-specific binding sites. E-selectin-Ig (50 ng/50 μl PBS) or P-selectin-Ig (50 ng/50 μl PBS) solutions was pipetted directly over the pre-existing protein A spots for 18 h at 4° C. To prepare L-selectin-Ig spots, L-selectin-Ig (300 ng/15 μl PBS) or isotype control human IgG (300 ng/15 μl) were adsorbed directly to plastic (non-protein A-coated) for 18 h at 4° C. and blocked in 100% FBS for 2 h at 4° C.
(§3) CLA^+ T-cells or freshly isolated PBL were treated with neuraminidase and metabolic glycosylation inhibitors or with protease (bromelain) as described above, washed twice in HBSS, suspended at 2×10^6/ml in HBSS/10 mM HEPES/2 mM CaCl2 (H/H/Ca^++) and infused into the chamber over selectin chimeras. Protease treatment was performed to control for residual E-selectin activity not attributable to the expression of CLA on a protein scaffold. Cell tethering was permitted at 0.6 dynes/cm^2 for 1 min, then stepwise increments in shear stress every 15 sec were employed to a final shear stress level of 60 dynes/cm^2. The number of cells rolling/viewing field (at 100× magnification) was quantified at each level of shear stress in triplicates for a minimum of three experiments. […] Negative control experiments were performed in parallel, wherein cell binding was examined in H/H adhesion assay medium containing 5 mM EDTA as well as assaying cell binding to human IgG isotype control.
(§4) Utilizing the parallel-plate flow chamber under physiologic shear stress conditions, E-, P- and L-selectin ligand activities of human CLA^+ T-cells treated were analyzed in an identical manner as cells prepared for Western blotting and autoradiography studies.

[5] = test system: E-selectin ligand activity of CLA+ T-lymphocytes; assay: Parallel-plate flow chamber, CLA+ T-cell tethering and rolling on E-selectin chimera; type: cell-based, human
Procedure: as §1, §2, §3, §4

[6] = test system: L-selectin ligand activity of human CLA+ T-cells; assay: Parallel-plate flow chamber, CLA+ T-cell rolling on L-selectin chimera; type: cell-based
Procedure: as §2, §3, §4

[7] = test system: HECA-452 epitopes on PSGL-1; assay: Western blot of HECA-452 epitopes on PSGL-1 of CLA+ T-cells; type: cell-based, human
Procedure: For analysis of CLA expression on T-cells treated with glycoconjugate modifiers, CLA^+ T-cells were first pretreated with neuraminidase (0.1 U/ml at 37° C. for 1 h) to eliminate functional CLA and cleave all HECA-452 reactive epitopes from the cell surface (35–38). Since we wanted to investigate whether these compounds directly affected CLA expression and function, neuraminidase pretreatment followed by incubations with glycosylation modifiers allowed for examination of de novo synthesized CLA/HECA-452 epitopes re-expressed on the cell surface. After neuraminidase digestion, cells were then incubated with tunicamycin (0.02 mM) (an inhibitor of GlcNAc phosphotransferase, the initial step of N-glycosylation), swainsonine (0.23 mM) (an inhibitor of α-mannosidase II and complex-type N-glycosylation), 4-F-GlcNAc (0.05 mM) (putative inhibitor of poly-N-acetyllactosamine biosynthesis), BAG (an inhibitor of O-glycan biosynthesis) (<2 mM) or GlcNAc (5 mM) (negative control, naturally-occurring metabolic counterpart of 4-F-GlcNAc)for 30 h in the presence of human recombinant IL-2. […] Concentrations for BAG were selected based on maximal O-glycosylation inhibitory effects at non-growth inhibitory concentrations as previously reported (39). To determine a suitable concentration of 4-F-GlcNAc for examining glycoconjugate-modifying effects without influencing cell growth or protein synthesis, we performed preliminary growth inhibitory experiments of cells incubated with 4-F-GlcNAc for 2 cell doublings (˜36 h) at 37° C. (cell viability assessed by Trypan-blue exclusion).
For lysate preparation, cells (including radiolabeled cells) were washed 3× in ice cold PBS and lysed in buffer containing 150 mM NaCl, 50 mM Tris-HCl pH 7.4, 1 mM EDTA, 0.02% NaAzide, 20 μg/ml PMSF, Complete™ protease inhibitors cocktail tablets (Roche Molecular Biochemicals) and 2% NP-40 (250 μl/10^8 cells). Following 2 h incubation on ice, insoluble cellular debris was pelleted by centrifugation for 30 min at 10,000×g at 4° C. and solubilized protein lysate was collected and quantified by Bradford protein assay (Sigma Chemical). SDS was added to a final concentration of 1% in lysate preparations utilized for immunoprecipitation experiments.
For SDS-PAGE and Western blotting, cell lysates, membrane proteins or immunoprecipitates were diluted and boiled in reducing sample buffer, and separated on 7–9% SDS-PAGE gels. Resolved protein was transferred to Sequi-blot™ PVDF membrane (Bio-Rad, Inc., Hercules, Calif.) and blocked with FBS for 1 hr at RT. Blots were incubated with rat IgM anti-human CLA HECA-452 (1 μg/ml), mouse IgG anti-human PSGL-1 moAbs PL-2 (1 μg/ml), 203, 4F9 and 4D8 (1 μg each/ml), or mouse IgG anti-human CD43 L60 (1 μg/ml) for 1 hr at RT. Isotype control immunoblots using either rat IgM or mouse IgG were performed in parallel to evaluate non-specific reactive proteins. After three washes with PBS/0.1%Tween-20 (10 min/wash), blots were incubated with the respective secondary Ab, AP-conjugated goat anti-rat IgM (1:400) or goat anti-mouse IgG (1:8000). AP substrate, Western Blue® (Promega, Madison, Wis.) was then added to develop blots.
Cells were then re-cultured in the presence of glycosylation inhibitor, diluent control (PBS) or molecular control (GlcNAc) for 30 hr and then harvested for CLA expression and functional analysis. […] To assess the duration of anti-carbohydrate effects on HECA-452 expression on PSGL-1, cells treated with 4-F-GlcNAc for 30 h and were then re-cultured in non-4-F-GlcNAc-containing medium for 72 h.

[8] = test system: α-mannose (ConA staining); type: cell-based, human; conditions: compared with PBS or GlcNAc treatments
Procedure: (§5) For lectin blotting, cell lysates (25 μg/spot) were spotted onto methanol-permeabilized PVDF membrane and blocked in FBS for 1 h at RT. Blots were then probed with AP-Canavalia ensiformis agglutinin (ConA) (2.0 μg/ml PBS; specificity: α-mannose), AP-Triticum vulgaris (Wheat germ) agglutinin (WGA) (0.5 μg/ml PBS; specificity: terminal GlcNAc or GlcNAcβ1,4GlcNAc) or AP-Lycopersicon esculentum (tomato lectin) agglutinin (LEA) (1.0 μg/ml PBS; specificity: (Galβ1,4GlcNAc)n) for 1 h at RT (All lectins from EY Labs., Inc., San Mateo, Calif.). After washing 3× in PBS/0.1% Tween-20 and 1× in PBS (10 min each), blots were developed with Western Blue®.
(§6) To analyze and identify the glycan modifications on CLA^+ T-cells treated with 4-F-GlcNAc, lectin blotting experiments were performed with ConA (Specificity: α-mannose), WGA (Specificity: terminal GlcNAc or GlcNAcβ1,4GlcNAc) and LEA (Specificity: {Galβ1,4GlcNAc}n).

[9] = test system: (Galβ1,4GlcNAc)n (LEA staining); assay: Lectin blot with LEA of CLA+ T-cell lysates; type: cell-based, human; conditions: compared with PBS or GlcNAc treatments
Procedure: as §5, §6

Compound | IC50 values, growth of tumor cell lines and normal endothelial cells [1] | dose limiting toxicity [2] [mg/kg×6 days] | incorporation of radiolabeled sugar precursors [3] | rolling adhesions on P-selectin chimera [4] | rolling adhesions on E-selectin chimera [5] | rolling adhesions on L-selectin chimera [6] | de novo synthesized HECA-452 epitopes on PSGL-1 (Western blot) [7] | effects on HECA-452 expression ([7]; concentrations below 1.0 mM, preliminary, data not shown) | ConA staining of lysates [8] | LEA staining of lysates [9]
CC(=O)N[C@H]1C(OC(C)=O)O[C@H](COC(C)=O)[C@@H](OC(C)=O)[C@@H]1F (stereo partly drawn) [3-F-GlcNAc, 2-acetamido-2-deoxy-1,4,6-tri-O-acetyl-3-deoxy-3-fluoro-D-glucopyranose] | identical to those that were previously described | ~250 | conspicuous reductions | – | – | – | – | – | – | –
CC(=O)N[C@H]1C(OCc2ccccc2)O[C@H](CO)[C@H](O)[C@@H]1O (stereo partly shown) [BAG, benzyl-O-N-acetylgalactosamide] | – | – | – | significant reductions | significant reductions | significant reductions | marked reduction | minimal effects | no effect | did not affect

From patent publication US7098195B2, “Fluorinated glucosamine analogs useful for modulating post-translational glycosylations on cells” (Health Research, Inc., priority 2001, dated 2006)
